The values that follow come from PMC11311138, “Design of Promising Thiazoloindazole-Based Acetylcholinesterase Inhibitors Guided by Molecular Docking and Experimental Insights” (ACS Chemical Neuroscience, 2024).

Broadly, the IC50 is the midpoint of a concentration-inhibition curve. A low value points to higher potency.

The target in test [1] is Electrophorus electricus AChE (eeAChE) (Electrophorus electricus, UniProt O42275). Nature of the test: biochemical. The following applies: pH 8, 37 °C, triplicate. The format is biochemical.
Sequence of Electrophorus electricus AChE (eeAChE) (O42275 24-633): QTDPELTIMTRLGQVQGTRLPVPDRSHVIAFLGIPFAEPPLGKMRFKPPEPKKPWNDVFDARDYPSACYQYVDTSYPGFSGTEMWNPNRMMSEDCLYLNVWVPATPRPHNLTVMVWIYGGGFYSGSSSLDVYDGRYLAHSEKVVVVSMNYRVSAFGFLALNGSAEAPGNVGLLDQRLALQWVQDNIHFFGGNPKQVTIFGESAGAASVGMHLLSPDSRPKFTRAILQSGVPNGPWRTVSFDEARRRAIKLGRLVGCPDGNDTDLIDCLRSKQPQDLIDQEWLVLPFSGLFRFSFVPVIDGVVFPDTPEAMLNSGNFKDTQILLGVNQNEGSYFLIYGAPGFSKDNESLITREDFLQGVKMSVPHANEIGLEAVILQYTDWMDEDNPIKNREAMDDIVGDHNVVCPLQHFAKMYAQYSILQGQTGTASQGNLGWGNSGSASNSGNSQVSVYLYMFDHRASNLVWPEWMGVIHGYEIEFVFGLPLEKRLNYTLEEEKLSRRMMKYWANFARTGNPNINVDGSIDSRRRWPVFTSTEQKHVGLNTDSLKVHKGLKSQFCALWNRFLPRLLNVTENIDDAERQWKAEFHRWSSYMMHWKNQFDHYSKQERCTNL
In the next test the target is equine serum BuChE (Equus caballus, UniProt P81908). Nature of the test: biochemical. The settings on record: pH 8, 37 °C, triplicate.
Sequence of equine serum BuChE (P81908 whole entry): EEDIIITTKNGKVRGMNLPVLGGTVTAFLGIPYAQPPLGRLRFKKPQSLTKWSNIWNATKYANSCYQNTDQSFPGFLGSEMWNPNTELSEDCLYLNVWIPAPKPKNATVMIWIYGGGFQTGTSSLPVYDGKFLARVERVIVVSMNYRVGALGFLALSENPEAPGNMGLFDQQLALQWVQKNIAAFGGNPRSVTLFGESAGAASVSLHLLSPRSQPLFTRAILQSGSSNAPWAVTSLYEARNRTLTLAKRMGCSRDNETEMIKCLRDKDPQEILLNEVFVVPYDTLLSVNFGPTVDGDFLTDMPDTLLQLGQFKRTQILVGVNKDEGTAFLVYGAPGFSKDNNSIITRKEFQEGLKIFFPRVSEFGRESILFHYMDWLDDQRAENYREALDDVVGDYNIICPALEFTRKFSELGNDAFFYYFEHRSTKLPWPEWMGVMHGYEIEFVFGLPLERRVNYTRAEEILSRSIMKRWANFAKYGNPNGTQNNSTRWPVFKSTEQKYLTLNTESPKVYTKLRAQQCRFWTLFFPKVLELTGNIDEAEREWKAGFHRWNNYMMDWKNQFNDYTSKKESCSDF

Take `CCn1ncc2c3sc(NC(=O)CCl)nc3ccc21` [6b, 2-Chloro-N-(6-ethyl-6H-thiazolo[5,4-e]indazol-2-yl)acetamide]: the 50% inhibitory concentration (IC50) in test [1] was 13.2 ± 2.71 µM; against equine serum BuChE it was over 50 µM.

As to `Cn1nc(Cl)c2c3sc(NC(=O)Cn4c5ccccc5c5ccccc54)nc3ccc21` [TI58c, 2-(9H-carbazol-9-yl)-N-(8-chloro-6-methyl-6H-thiazolo[5,4-e]indazol-2-yl)acetamide], the half-inhibitory concentration (IC50) (in test [1]; against equine serum BuChE) was over 50 µM each time.

As for `Cn1ncc2c3sc(NC(=O)CCl)nc3ccc21` [6a, 2-Chloro-N-(6-methyl-6H-thiazolo[5,4-e]indazol-2-yl)acetamide], the half-maximal inhibitory concentration (IC50) in test [1] is 14.3 ± 2.62 µM; at equine serum BuChE, over 50 µM.

Take `Cn1nc(Cl)c2c3sc(NC(=O)CCl)nc3ccc21` [6c, 2-Chloro-N-(8-chloro-6-methyl-6H-thiazolo[5,4-e]indazol-2-yl)acetamide]: the values for the IC50 (in test [1]; on equine serum BuChE) were over 25 µM and over 50 µM, respectively.

In the case of `Cn1ncc2c3sc(NC(=O)CN=[N+]=[N-])nc3ccc21` [7a, 2-Azido-N-(6-methyl-6H-thiazolo[5,4-e]indazol-2-yl)acetamide], the IC50 (in test [1]; on equine serum BuChE) was over 50 µM each time.

Turning to `CCn1ncc2c3sc(NC(=O)Cn4c5ccccc5c5ccccc54)nc3ccc21` [TI58b, 2-(9H-carbazol-9-yl)-N-(6-ethyl-6H-thiazolo[5,4-e]indazol-2-yl)acetamide], in test [1], the “AChE IC50” value is recorded as “did not experimentally show any activity against AChE” and the concentration for half-maximal inhibition (IC50) is over 50 µM. Moreover, the 50% inhibitory concentration (IC50) against equine serum BuChE is over 50 µM.

As for `CCn1ncc2ccc3nc(N)sc3c21` [5d, 1-Ethyl-1H-thiazolo[4,5-g]indazol-7-amine], the IC50 (in test [1]; against equine serum BuChE) was over 50 µM in each case.

As for `CCn1ncc2c3sc(NC(=O)Cn4cc(-c5cc(C(F)(F)F)cc(C(F)(F)F)c5)nn4)nc3ccc21` [TI45b, 2-(4-(3,5-bis(Trifluoromethyl)phenyl)-1H-1,2,3-triazol-1-yl)-N-(6-ethyl-6H-thiazolo[5,4-e]indazol-2-yl)acetamide], the IC50 in test [1] was 0.071 ± 0.014 µM; against equine serum BuChE, over 50 µM.

Consider `Cn1ncc2c3sc(N)nc3ccc21` [5a, 6-Methyl-6H-thiazolo[5,4-e]indazol-2-amine], for which the half-maximal inhibitory concentration (IC50) (in test [1]; against equine serum BuChE) was over 50 µM in each case.

For the molecule `Cn1ncc2ccc3nc(N)sc3c21` [5c, 1-Methyl-1H-thiazolo[4,5-g]indazol-7-amine], the 50% inhibitory concentration (IC50) (in test [1]; on equine serum BuChE) was over 50 µM each time.

For `Cn1ncc2c3sc(NC(=O)Cn4cc(-c5cc(C(F)(F)F)cc(C(F)(F)F)c5)nn4)nc3ccc21` [TI45a, 2-(4-(3,5-bis(Trifluoromethyl)phenyl)-1H-1,2,3-triazol-1-yl)-N-(6-methyl-6H-thiazolo[5,4-e]indazol-2-yl)acetamide], the 50% inhibitory concentration (IC50) (in test [1]; against equine serum BuChE) was over 50 µM in each case.

`Cn1nc(Cl)c2c3sc(N)nc3ccc21` [5e, 8-Chloro-6-methyl-6H-thiazolo[5,4-e]indazol-2-amine]: the IC50 (in test [1]; on equine serum BuChE) was over 50 µM throughout.

In the case of `Cn1ncc2c3sc(NC(=O)Cn4c5ccccc5c5ccccc54)nc3ccc21` [TI58a, 2-(9H-carbazol-9-yl)-N-(6-methyl-6H-thiazolo[5,4-e]indazol-2-yl)acetamide], the IC50 (in test [1]; at equine serum BuChE) was over 50 µM throughout.

For the molecule `Cn1nc(Cl)c2c3sc(NC(=O)Cn4cc(-c5cc(C(F)(F)F)cc(C(F)(F)F)c5)nn4)nc3ccc21` [TI45c, 2-(4-(3,5-bis(Trifluoromethyl)phenyl)-1H-1,2,3-triazol-1-yl)-N-(8-chloro-6-methyl-6H-thiazolo[5,4-e]indazol-2-yl)acetamide], the IC50 (in test [1]; at equine serum BuChE) was over 50 µM each time.

Regarding `CCn1ncc2c3sc(NC(=O)CN=[N+]=[N-])nc3ccc21` [7b, 2-Azido-N-(6-ethyl-6H-thiazolo[5,4-e]indazol-2-yl)acetamide], the IC50 in test [1] is 0.54 ± 0.11 µM; at equine serum BuChE it was over 50 µM.

Turning to `Cn1nc(Cl)c2c3sc(NC(=O)CN=[N+]=[N-])nc3ccc21` [7c, 2-Azido-N-(8-chloro-6-methyl-6H-thiazolo[5,4-e]indazol-2-yl)acetamide], the values for the IC50 (in test [1]; against equine serum BuChE) were 2.26 ± 0.09 µM and over 50 µM, respectively.

As to `CCn1ncc2c3sc(N)nc3ccc21` [5b, 6-Ethyl-6H-thiazolo[5,4-e]indazol-2-amine], the 50% inhibitory concentration (IC50) (in test [1]; at equine serum BuChE) was over 50 µM each time.
